The values below come from patent US8399440B2, “Disease modifying anti-arthritic activity of 2-methoxyestradiol” (EntreMed, Inc., priority 2006, dated 2013).

The nature of series [1]: Steady-state PK in study SMP05-010. The series is classed as in vivo, Mouse (Balb/C).
Series [2] has as its system Collagen-Induced Arthritis. The experiment in a line: Collagen-induced arthritis (UCLA studies). It is filed as in vivo, Rat (Louvain).
In series [3] the test system is Adjuvant-Induced Arthritis. The experiment in a line: Adjuvant arthritis, clinical arthritis severity. Particulars: for arthritis severity (clinical score) by day 14, mean: vehicle reached score 11. The series is classed as in vivo, Rat (Lewis).
Series [4] deals with Adjuvant-Induced Arthritis (Adoptive Transfer Model). In words: Adjuvant-induced arthritis, adoptive transfer model. It is filed as in vivo, Rat (Lewis). The following applies: Dalhousie Study #2; 3, 30 mg/kg/d SC.
The subject of series [5] is PMNL migration to arthritic joints. The experiment in a line: 51Cr-labeled PMNL migration to arthritic joints. It is filed as in vivo, Rat (Lewis). From the text: Rat blood PMNL were isolated from a donor arthritic rat by hydroxyethyl starch (Hespan; Dupont Merck, Wilmington, Del.) exchange transfusion performed through a needle inserted in a femoral vein. The exchanged blood was collected into heparin and acid-citrate-dextrose (ACD, formula A; Fenwal-Travenol, Malton, ON) and the leukocyte-rich plasma was harvested during 1 g sedimentation of red blood cells. The PMNL were then isolated by centrifugation on discontinuous Percoll density gradients of 63% Percoll above 74% Percoll with 10% autologous plasma and calcium and magnesium-free Tyrode's solution (TyS^−/−) for the balance of the suspending medium. After centrifugation (350×g, 30 min at 22° C.) the purified PMNL (>95%) were harvested from the layer above the 74% plasma-Percoll cushion and after washing with TyS^−/−−10% plasma, the cells were radiolabeled with 75 μCi/5×10^7 cells of Na2^51CrO4 (GE Healthcare Bio-Sciences Inc., Baie d'Urfé, QC). After the cells were washed, they were injected i.v. into rats at a dose of 10^7 51Cr-labeled PMNL per animal bearing approximately 1-2×10^5 cpm. These cells were allowed to circulate and migrate for 2 h prior to sacrifice of the rats.
At the time the rats were killed, cardiac blood was obtained to measure the blood leukocyte count and the leukocyte and plasma associated radioactivity. Joints were dissected and segments of limbs sectioned to include carpal, metacarpal, talar and metatarsal joints for analysis as previously reported (Issekutz et al. Lab Invest. (1991), 64:656-63 and Issekutz et al. Arthritis Rheum. (2001), 44:1428-37). The content of ^51Cr in the joints, as well as in dermal skin sites and internal organs, was determined with a Wallac LKB 1280 gamma counter (Fisher Scientific, Nepean, ON). Accumulated isotope in the tissue was expressed as cpm/10^6 cpm injected i.v.

Series [6] deals with joint synovium and articular cartilage. In words: Joint histology and cartilage damage (H&E, safranin O). It is filed as in vivo, Rat (Lewis). On the procedure: Tissue samples, including joints, were fixed in 10% phosphate-buffered formalin or AFA fixative ([…], 2% formalin, 5% glacial acetic acid, 20% water), the latter for immunostaining. Samples were then decalcified in formic or acetic acid and paraffin embedded. Sections (5 μm) were stained with hematoxylin-eosin (H&E) using routine techniques. To stain cartilage proteoglycan, separate sections were stained with safranin O (Difco, Detroit, Mich.) for 1 min. as described previously (Issekutz, (2001). To assess microvessel density in the synovium, rabbit anti-mouse laminin polyclonal IgG antibody (Cedarlane Laboratories Limited, Homby, ON) was used to outline vessels, with detection using biotinylated goat anti-rabbit IgG antibody and avidin-biotin complexed with HRPO according to manufacturer's recommendations (Vectastain Elite ABC kit; Vector Laboratories Canada Inc., Burlington, ON).
Even by the H&E staining the cartilage damage is visible on the articular surfaces and margins. This is more profoundly illustrated by the safranin O staining with marked focal proteoglycan loss and fragmentation.

For the next series, the target named is T1, estrogen receptor α (Homo sapiens, UniProt P03372).
T1 sequence (P03372 1-595): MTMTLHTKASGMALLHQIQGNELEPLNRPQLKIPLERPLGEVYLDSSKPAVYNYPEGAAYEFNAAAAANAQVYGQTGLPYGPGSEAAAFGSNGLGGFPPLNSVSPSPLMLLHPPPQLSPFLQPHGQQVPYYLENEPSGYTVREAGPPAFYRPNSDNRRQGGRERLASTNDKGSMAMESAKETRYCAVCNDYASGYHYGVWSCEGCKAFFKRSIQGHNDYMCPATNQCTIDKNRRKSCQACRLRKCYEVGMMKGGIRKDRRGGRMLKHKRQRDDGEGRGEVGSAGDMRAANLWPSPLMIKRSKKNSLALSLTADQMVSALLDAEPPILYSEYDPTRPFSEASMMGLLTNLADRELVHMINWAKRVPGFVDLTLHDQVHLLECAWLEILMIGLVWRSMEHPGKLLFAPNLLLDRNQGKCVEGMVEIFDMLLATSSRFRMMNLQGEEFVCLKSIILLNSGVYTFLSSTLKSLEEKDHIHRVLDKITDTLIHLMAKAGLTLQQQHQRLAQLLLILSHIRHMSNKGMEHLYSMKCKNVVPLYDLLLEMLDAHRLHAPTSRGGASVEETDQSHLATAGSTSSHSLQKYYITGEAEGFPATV
The following applies: LaVallee et al. 2002; cited from earlier work.

The target of the next series is estrogen receptor β (Homo sapiens, UniProt Q92731). The following applies: LaVallee et al. 2002; cited from earlier work.
Chain of estrogen receptor β (Q92731 whole entry): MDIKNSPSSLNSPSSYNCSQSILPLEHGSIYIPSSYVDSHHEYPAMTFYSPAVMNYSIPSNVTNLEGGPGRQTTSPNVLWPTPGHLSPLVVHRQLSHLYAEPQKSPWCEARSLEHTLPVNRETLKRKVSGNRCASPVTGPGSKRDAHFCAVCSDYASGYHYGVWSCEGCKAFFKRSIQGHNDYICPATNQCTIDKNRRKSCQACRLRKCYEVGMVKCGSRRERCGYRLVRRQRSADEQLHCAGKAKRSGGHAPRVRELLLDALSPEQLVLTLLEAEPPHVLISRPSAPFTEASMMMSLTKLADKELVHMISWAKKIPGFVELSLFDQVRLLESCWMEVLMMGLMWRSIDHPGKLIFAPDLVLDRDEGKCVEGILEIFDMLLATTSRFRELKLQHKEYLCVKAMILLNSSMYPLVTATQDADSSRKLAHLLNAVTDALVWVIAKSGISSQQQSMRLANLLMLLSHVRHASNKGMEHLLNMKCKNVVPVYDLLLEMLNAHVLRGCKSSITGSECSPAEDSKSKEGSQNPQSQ
Another series deals with endothelial cell. In words: Endothelial cell proliferation in vitro.

Regarding `COc1cc2c(cc1O)CC[C@@H]1[C@@H]2CC[C@]2(C)[C@@H](O)CC[C@@H]12` [2ME2, 2-methoxyestradiol], the “Steady-state AUC0-24” value in series [1] (25 mg/kg PO) was determined as 0.066 µg·h/mL; in series [1] (50 mg/kg PO), 0.117 µg·h/mL. Besides, the onset of disease result in series [2] (UCLA Study #1, PO) is recorded as “Delays onset”. In series [2] (UCLA Study #1, prevention 30, 100 mg/kg/d PO, treatment 10, 30, 100 mg/kg/d PO), the “inhibition of clinical arthritic score and bone erosion” value was “Dose dependent”. Also, the “inhibition of clinical arthritic score, inflammation, and bone erosion, cartilage degradation and pannus formation” value in series [2] (UCLA Study #2, treatment from day 10, 50 mg/kg BID, 100 or 300 mg/kg/d PO or 60 mg/kg/d SC osmotic pumps) is listed as “Dose dependent”. Moreover, the “arthritis severity (clinical score) by day 14, mean” value was 7.4 in series [3] (30 mg/kg/d i.p. initiated day 6 post-immunization) and 6.5 in [3] (100 mg/kg/d i.p. initiated day 6 post-immunization). Also, the “modification of arthritis severity” value in series [3] (30 mg/kg/d initiated on day 10 post-immunization) is “did not reach statistical significance”. In addition, in series [3] (100 mg/kg/d initiated at onset of clinical arthritis, day 10 post-immunization), the arthritis severity entry is “attenuation of arthritis severity”. Moreover, the “inhibition of clinical arthritic score, inflammation, and bone destruction” value in [4] was “Dose dependent”. In addition, the “accumulation of 51Cr-labeled PMNL in hind limb joints” value in [5] (100 or 30 mg/kg/d initiated at day 6 (preclinical phase)) is given as “significantly decreased”. Further, the “immune cell migration to the joint” value in [5] (Dalhousie Study #1, 30, 100 mg/kg/d PO) is listed as “Blocked”. In addition, in series [5] (delayed treatment starting on day 10, tendency for a decrease), the “accumulation of 51Cr-labeled PMNL in joints” value is given as “did not reach significance”. In [6] (100 mg/kg/d initiated at day 6 post-immunization), the “articular cartilage surfaces and proteoglycan staining” value was “preservation of articular cartilage surfaces and proteoglycan staining”. Further, in series [6] (100 mg/kg/d initiated at day 6 post-immunization, compared to vehicle), the “leukocyte infiltration of the synovium” value is listed as “less intense leukocyte infiltration”. The cartilage preservation entry in series [6] (treatment delayed to day 10) is “cartilage preservation was still observed”. For the same compound, the “leukocyte cellularity in the synovium” value in series [6] (treatment delayed to day 10) is reported as “less noticeably affected”. Besides, the “affinity for estrogen receptor α” value at estrogen receptor α is given as “low affinity”. Besides, on estrogen receptor β, the “affinity for estrogen receptor β” value is given as “low affinity”. In addition, the “IC50, endothelial cell proliferation” value with endothelial cell (optimal serum and endothelial cell growth supplements) is recorded as “approximately 0.5 μg/mL”. The “concentration required for inhibition under optimal versus restricted growth conditions” value in the series on endothelial cell (optimal serum and growth supplements versus restricted) was “two-fold higher concentration”. Besides, the IC50 in the series on endothelial cell (read-out: IC50, endothelial cell proliferation, optimal serum and endothelial cell growth supplements) was roughly 1.5 µM. Further, the “concentration giving significant inhibition of endothelial cell proliferation” value with endothelial cell (restricted serum and growth factor) was 0.25 µg/mL.
